Laboratory results reported in patent US11667602B2, “Compounds and their use” (AstraZeneca AB, priority 2020, dated 2023).
In brackets after ≈: the same amount, converted by molar mass. Where two headings read alike, the source gives them in different places.

Legend:
[1] = Human Plasma Protein Binding (Test B); type: in vitro ADME; settings: fraction unbound (fu)
How it was run: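 Values given as % free (fu) in human plasma, using the method of Wernevik et al. (2020). For compounds tested more than once, the arithmetic mean is given.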

Solubility (Test F) = type: physicochemical; settings: arithmetic mean if run multiple times
Description: The assay was conducted according to the Solubility Assay described in pages 164-167 of Wernevik, J. et al., “A Fully Integrated Assay Panel for Early Drug Metabolism and Pharmacokinetics Profiling”, Assay and Drug Development Technologies, 2020, 18(4), 157-179. Data are reported in Table 36 as solubility ([…]. Where the assay was run multiple times for the same compound, the arithmetic mean is reported.

[2] = Human Liver Microsomal Stability (Test C); type: in vitro ADME; settings: for microsomal CLint: human, liver microsomes
How it was run: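 CLint (μl/min/mg protein) derived from compound depletion in human liver microsomes following a published standardized early-DMPK protocol; replicate determinations given as arithmetic mean.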

[3] = Human Hepatocyte Stability (Test D); type: in vitro ADME; settings: geometric mean if run multiple times; for hepatocyte CLint at 1 µM: human, cryopreserved pooled human hepatocytes (LiverPool 10-Donor)
How it was run: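 Intrinsic clearance (μL/min/10^6 cells), derived as kV/N from the log-linear loss of parent compound. Compound incubated at 37 °C with cryopreserved pooled human hepatocytes, 0.25×10^6 cells in 0.25 mL L-15; dosing solution 100 μM in acetonitrile. Singlicate incubations, cassette LC-MS; repeats reported as geometric mean.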

human RXFP1 = target: T1, human RXFP1 (Homo sapiens, UniProt Q9HBX9); experiment: RXFP1 Hu cAMP (Test A); type: cell-based; design: expressed in transfected cells; host or cells: Jump-In T-REx CHO-K1 cells (ThermoFisher), induced with 10 ng/ml doxycycline for 24 h
T1 sequence (Q9HBX9 1-757): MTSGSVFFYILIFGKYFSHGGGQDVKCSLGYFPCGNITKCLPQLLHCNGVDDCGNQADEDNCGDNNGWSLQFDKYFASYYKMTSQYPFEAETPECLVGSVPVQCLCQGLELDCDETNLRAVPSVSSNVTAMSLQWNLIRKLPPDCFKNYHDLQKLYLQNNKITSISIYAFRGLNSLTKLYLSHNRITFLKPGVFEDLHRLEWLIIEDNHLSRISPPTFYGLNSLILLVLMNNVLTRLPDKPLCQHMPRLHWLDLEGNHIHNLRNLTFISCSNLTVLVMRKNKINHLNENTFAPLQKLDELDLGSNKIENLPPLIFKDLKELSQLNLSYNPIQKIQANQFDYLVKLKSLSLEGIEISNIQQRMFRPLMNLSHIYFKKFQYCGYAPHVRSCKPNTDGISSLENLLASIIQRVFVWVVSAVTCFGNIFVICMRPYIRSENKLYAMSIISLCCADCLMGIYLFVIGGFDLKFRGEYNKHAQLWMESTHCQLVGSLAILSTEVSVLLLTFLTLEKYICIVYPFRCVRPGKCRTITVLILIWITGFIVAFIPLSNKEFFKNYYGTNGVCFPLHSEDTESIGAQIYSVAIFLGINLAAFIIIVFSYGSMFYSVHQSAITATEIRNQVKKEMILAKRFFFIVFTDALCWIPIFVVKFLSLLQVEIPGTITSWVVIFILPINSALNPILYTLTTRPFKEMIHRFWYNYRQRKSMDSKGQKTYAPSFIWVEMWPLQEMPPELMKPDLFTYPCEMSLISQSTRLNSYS
How it was run: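 Doxycycline-induced (10 ng/ml, 24 h) CHO-K1 cells stably expressing human RXFP1; cAMP read by competitive HTRF after 2 h at room temperature, with 0.5 mM IBMX final.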

[4] = Rat Hepatocyte Stability (Test E); type: in vitro ADME; settings: geometric mean if run multiple times; for hepatocyte CLint: rat, hepatocytes
How it was run: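 Intrinsic clearance in rat hepatocytes, expressed as μl/min/10^6 cells, following the literature integrated DMPK panel method. Repeat determinations combined as geometric mean.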

[5] = RXFP1 Hu cAMP, read-out: Test A EC50

Test B Human Plasma Protein Binding (% free) [1] [% free]	solubility (Solubility (Test F)) [µM]	microsomal CLint [2] [µL/min/mg]	hepatocyte CLint at 1 µM [3] [µL/min/1e6 cells]	Test A Sinf (human RXFP1; RXFP1 Hu cAMP) [%]	EC50 (human RXFP1; [5]) [nM]	hepatocyte CLint [4] [µL/min/1e6 cells]	Compound	EC50 (human RXFP1; Test A EC50, RXFP1 Hu cAMP) [nM]	Test C Human Liver Microsomal Stability Clint ([2]; human liver microsomes) [µL/min/mg]	Test D Human Hepatocyte Stability Clint ([3]; human hepatocytes) [μL/min/10^6 cells]	Test E Rat Hepatocyte Stability Clint ([4]; rat hepatocytes) [μL/min/10^6 cells]
3.3	> 1000	< 3	4.4	108	320	19	COc1cc(F)c(O[C@H]2CC[C@@H](C(=O)O)CC2)cc1C(=O)N[C@H]1[C@@H](C(=O)Nc2ccc(OC)c(S(=O)(=O)C(F)(F)F)c2)[C@@H]2C=C[C@H]1C2 [Example 497, (1S,4s)-4-(2-Fluoro-4-methoxy-5-(((1R,2R,3S,4S)-3-((4-methoxy-3-((trifluoromethyl)sulfonyl)phenyl)carbamoyl)bicyclo[2.2.1]hept-5-en-2-yl)carbamoyl)phenoxy)cyclohexane-1-carboxylic acid]	–	–	–	–
<0.070	1000 (≈ 651 µg/mL)	9.4	5	125	13	7	COc1cc(F)c(O[C@H]2CC[C@@H](C(=O)O)CC2)cc1C(=O)N[C@@H]1[C@@H]2CC[C@@H](C2)[C@@H]1C(=O)Nc1cccc(S(F)(F)(F)(F)F)c1 [Example 509, (1S,4s)-4-(2-Fluoro-4-methoxy-5-(((1R,2R,3S,4S)-3-((3-(pentafluoro-A6-sulfaneyl)phenyl)carbamoyl)bicyclo[2.2.1]heptan-2-yl)carbamoyl)phenoxy)cyclohexane-1-carboxylic acid]	–	–	–	–
1.8	1000 (≈ 585 µg/mL)	36	18	106	160	19	COc1cc(F)c(O[C@H]2CC[C@@H](C(=O)O)CC2)cc1C(=O)N[C@@H]1CCC[C@@H]1C(=O)Nc1ccc(F)c(C(F)(F)F)c1 [Example 492]	–	–	–	–
<0.35	8 (≈ 5.58 µg/mL)	65	8	114	110	4.6	COc1cc(F)c(-c2ccc(CCS(N)(=O)=O)cc2)cc1C(=O)N[C@H]1[C@H]2CC[C@H](C2)[C@H]1C(=O)Nc1cccc(S(=O)(=O)C(F)(F)F)c1 (single isomer, unassigned) [Example 326]	–	–	–	–
0.13	1000 (≈ 667 µg/mL)	23	12	115	< 3.6	22	COc1cc(F)c(O[C@H]2CC[C@@H](C(=O)O)CC2)cc1C(=O)N[C@H]1[C@@H](C(=O)Nc2ccc(F)c(S(F)(F)(F)(F)F)c2)[C@@H]2C=C[C@H]1C2 [Example 488, (1S,4s)-4-(2-fluoro-5-(((1R,2R,3S,4S)-3-((4-fluoro-3-(pentafluoro-λ6-sulfaneyl)phenyl)carbamoyl)bicyclo[2.2.1]hept-5-en-2-yl)carbamoyl)-4-methoxyphenoxy)cyclohexane-1-carboxylic acid]	–	–	–	–
0.81	920 (≈ 586 µg/mL)	< 3	3.7	98	–	7	COc1cc(F)c(-c2cnn(CC(=O)O)c2)cc1C(=O)N[C@H]1[C@@H](C(=O)Nc2cccc(S(=O)(=O)C(F)(F)F)c2)[C@@H]2C=C[C@H]1C2 [Example 271, 2-(4-(2-Fluoro-4-methoxy-5-(((1R,2R,3S,4S)-3-((3-((trifluoromethyl)sulfonyl)phenyl)carbamoyl)bicyclo[2.2.1]hept-5-en-2-yl)carbamoyl)phenyl)-1H-pyrazol-1-yl)acetic acid]	–	–	–	–
0.33	190 (≈ 127 µg/mL)	12	4.3	105	1.5	17	COc1cc(F)c(O[C@H]2CC[C@@](C)(C(=O)O)CC2)cc1C(=O)NC1C2CCC(C2)C1C(=O)Nc1cccc(S(=O)(=O)C(F)(F)F)c1 (single isomer, unassigned) [Example 586, (1R,4s)-4-(2-Fluoro-4-methoxy-5-(((1S*,2S*,3R*,4R*)-3-((3-((trifluoromethyl)sulfonyl)phenyl)carbamoyl)bicyclo[2.2.1]heptan-2-yl)carbamoyl)phenoxy)-1-methylcyclohexane-1-carboxylic acid]	–	–	–	–

Continued, molecule first:

Compound	Test B Human Plasma Protein Binding (% free) [1] [% free]	solubility (Solubility (Test F)) [µM]	microsomal CLint [2] [µL/min/mg]	hepatocyte CLint at 1 µM [3] [µL/min/1e6 cells]	Test A Sinf (human RXFP1; RXFP1 Hu cAMP) [%]	EC50 (human RXFP1; [5]) [nM]	hepatocyte CLint [4] [µL/min/1e6 cells]	EC50 (human RXFP1; Test A EC50, RXFP1 Hu cAMP) [nM]	Test C Human Liver Microsomal Stability Clint ([2]; human liver microsomes) [µL/min/mg]	Test D Human Hepatocyte Stability Clint ([3]; human hepatocytes) [μL/min/10^6 cells]	Test E Rat Hepatocyte Stability Clint ([4]; rat hepatocytes) [μL/min/10^6 cells]
COc1cc(F)c(O[C@H]2CC[C@@H](C(=O)O)CC2)cc1C(=O)NC1=C(C(=O)Nc2ccc(F)c(C(F)(F)F)c2)CCCC1 [Example 213, (1s,4s)-4-(2-Fluoro-5-((2-((4-fluoro-3-(trifluoromethyl)phenyl)carbamoyl)cyclohex-1-en-1-yl)carbamoyl)-4-methoxyphenoxy)cyclohexane-1-carboxylic acid]	0.18	6.5 (≈ 3.88 µg/mL)	16	4	98	180	8	–	–	–	–
Cc1cc(F)c(O[C@H]2CC[C@@](C)(C(=O)O)CC2)cc1C(=O)N[C@@H]1[C@H]2CC[C@H](C2)[C@@H]1C(=O)NCC1(C)CCC1 [Example 5, (1S,4s)-4-(2-Fluoro-4-methyl-5-(((1S,2R,3S,4R)-3-(((1-methylcyclobutyl)methyl)carbamoyl)bicyclo[2.2.1]heptan-2-yl)carbamoyl)phenoxy)-1-methylcyclohexane-1-carboxylic acid]	2.4	800 (≈ 423 µg/mL)	16	15	85	–	11	> 1700	–	–	–
COc1c(F)cc(O[C@H]2CC[C@@](C)(C(=O)O)CC2)cc1C(=O)N[C@@H]1[C@H]2CC[C@H](C2)[C@@H]1C(=O)NCC1(C)CCC1 [Example 374]	2.9	680 (≈ 370 µg/mL)	44	5.3	–	–	21	44	–	–	–
COc1cc(F)c(O[C@H]2CC[C@@](C)(C(=O)O)CC2)cc1C(=O)N[C@@H]1COCC[C@@H]1C(=O)Nc1cccc(S(=O)(=O)C(F)(F)F)c1 (relative stereo) [Example 559, (1R,4s)-4-(2-Fluoro-4-methoxy-5-(((3S*,4S*)-4-((3-((trifluoromethyl)sulfonyl)phenyl)carbamoyl)tetrahydro-2H-pyran-3-yl)carbamoyl)phenoxy)-1-methylcyclohexane-1-carboxylic acid]	2.5	900 (≈ 595 µg/mL)	–	–	102	1200	–	–	9.4	4.1	8.4
COc1cc(C#N)c(O[C@H]2CC[C@@](C)(C(=O)O)CC2)cc1C(=O)NC1C2C=CC(CC2)C1C(=O)NCC1(C)CCC1 (single isomer, unassigned) [Example 540, (1R,4s)-4-(2-Cyano-4-methoxy-5-(((1R*,2S*,3R*,4S*)-3-(((1-methylcyclobutyl)methyl)carbamoyl)bicyclo[2.2.2]oct-5-en-2-yl)carbamoyl)phenoxy)-1-methylcyclohexane-1-carboxylic acid]	6	1000 (≈ 564 µg/mL)	20	8.5	104	20	19	–	–	–	–
